Test results taken from patent publication US12590118B2, “Salt and crystal form of steroid derivative regulator” (Shanghai Hansoh Biomedical Co., Ltd., priority 2019, dated 2026).

Target: GABA-A receptor
Test: 35S-TBPS binding assay (GABAA receptor binding ability assay)
Set-up: species or system Sprague-Dawley rat
Conditions: rat cerebral cortex cell membrane, 5 μM GABA, 2 nM 35S-TBPS; read-out: IC50 on inhibiting the TBPS binding activity, 35S-TBPS bindng assay
How it was run: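 Male Sprague-Dawley rat cerebral cortex membranes in PBS, preincubated with compound (1% DMSO, 8-point 3-fold series) 5 min at 25° C, then GABA 5 μM final 5 min, then 2 nM 35S-TBPS for 20 h at 4° C. Bound radioactivity filtered on PEI-treated GF/C and counted. % inhibition relative to DMSO and 10 μM P026-2 controls; IC50 from 4-parameter fit.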

C[C@@]1(O)CC[C@H]2[C@H](CC[C@@H]3[C@@H]2CC[C@@]2(C)[C@H]3[C@@H]3C[C@@H]3[C@@H]2C(=O)Cn2ccc(C#N)n2)C1 [Example 2, 1-(2-((2R,4aS,4bR,6aS,7S,7aS,8aR,8bR,8cR,10aR)-2-Hydroxy-2,6a-dimethyloctadecahydrocyclopropa[4,5]cyclopenta[1,2-a]phenanthren-7-yl)-2-oxoethyl)-1H-pyrazole-3-carbonitrile]
IC50: 14.9 nM

C[C@@H]1C[C@H](C(=O)Cn2ccc(C#N)n2)[C@@]2(C)CC[C@H]3[C@@H](CC[C@@H]4C[C@](C)(O)CC[C@@H]43)[C@H]12 [Example 40, 1-(2-((3R,5R,8R,9R,10S,13S,14S,15R,17S)-3-Hydroxy-3,13,15-trimethylhexadecahydro-1H-cyclopenta[a]phenanthren-17-yl)-2-oxoethyl)-1H-pyrazole-3-carbonitrile]
IC50: 8.2 nM
